Values of other authors in PMC3480357, “Fragment-Hopping-Based Discovery of a Novel Chemical Series of Proto-Oncogene PIM-1 Kinase Inhibitors” (PLoS ONE, 2012).

What was measured:
Parameters in all cases: method as in PMID 21051136
Details in all cases: 10 µM; average of two data points; cited from earlier work
JAK2 = JAK2 (Homo sapiens, UniProt O60674)
FGF-R1 = FGF-R1 (Homo sapiens, UniProt P11362)
IGF1-R = IGF1-R (Homo sapiens, UniProt P08069)
INS-R = INS-R (Homo sapiens, UniProt P06213)
Chain of INS-R (P06213 980-1382 limits assumed, species assumed): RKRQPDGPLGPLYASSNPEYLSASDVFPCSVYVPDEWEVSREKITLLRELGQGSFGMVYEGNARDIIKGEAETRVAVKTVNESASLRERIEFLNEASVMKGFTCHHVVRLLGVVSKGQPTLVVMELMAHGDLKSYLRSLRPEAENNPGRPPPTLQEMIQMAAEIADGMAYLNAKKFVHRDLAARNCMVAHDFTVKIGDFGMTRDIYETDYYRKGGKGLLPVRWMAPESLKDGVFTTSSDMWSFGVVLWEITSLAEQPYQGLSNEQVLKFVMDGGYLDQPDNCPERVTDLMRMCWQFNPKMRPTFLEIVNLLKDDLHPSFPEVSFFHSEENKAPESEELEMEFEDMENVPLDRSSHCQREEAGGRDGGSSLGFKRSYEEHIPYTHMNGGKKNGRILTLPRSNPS

Chain of IGF1-R (P08069 31-1367, species assumed): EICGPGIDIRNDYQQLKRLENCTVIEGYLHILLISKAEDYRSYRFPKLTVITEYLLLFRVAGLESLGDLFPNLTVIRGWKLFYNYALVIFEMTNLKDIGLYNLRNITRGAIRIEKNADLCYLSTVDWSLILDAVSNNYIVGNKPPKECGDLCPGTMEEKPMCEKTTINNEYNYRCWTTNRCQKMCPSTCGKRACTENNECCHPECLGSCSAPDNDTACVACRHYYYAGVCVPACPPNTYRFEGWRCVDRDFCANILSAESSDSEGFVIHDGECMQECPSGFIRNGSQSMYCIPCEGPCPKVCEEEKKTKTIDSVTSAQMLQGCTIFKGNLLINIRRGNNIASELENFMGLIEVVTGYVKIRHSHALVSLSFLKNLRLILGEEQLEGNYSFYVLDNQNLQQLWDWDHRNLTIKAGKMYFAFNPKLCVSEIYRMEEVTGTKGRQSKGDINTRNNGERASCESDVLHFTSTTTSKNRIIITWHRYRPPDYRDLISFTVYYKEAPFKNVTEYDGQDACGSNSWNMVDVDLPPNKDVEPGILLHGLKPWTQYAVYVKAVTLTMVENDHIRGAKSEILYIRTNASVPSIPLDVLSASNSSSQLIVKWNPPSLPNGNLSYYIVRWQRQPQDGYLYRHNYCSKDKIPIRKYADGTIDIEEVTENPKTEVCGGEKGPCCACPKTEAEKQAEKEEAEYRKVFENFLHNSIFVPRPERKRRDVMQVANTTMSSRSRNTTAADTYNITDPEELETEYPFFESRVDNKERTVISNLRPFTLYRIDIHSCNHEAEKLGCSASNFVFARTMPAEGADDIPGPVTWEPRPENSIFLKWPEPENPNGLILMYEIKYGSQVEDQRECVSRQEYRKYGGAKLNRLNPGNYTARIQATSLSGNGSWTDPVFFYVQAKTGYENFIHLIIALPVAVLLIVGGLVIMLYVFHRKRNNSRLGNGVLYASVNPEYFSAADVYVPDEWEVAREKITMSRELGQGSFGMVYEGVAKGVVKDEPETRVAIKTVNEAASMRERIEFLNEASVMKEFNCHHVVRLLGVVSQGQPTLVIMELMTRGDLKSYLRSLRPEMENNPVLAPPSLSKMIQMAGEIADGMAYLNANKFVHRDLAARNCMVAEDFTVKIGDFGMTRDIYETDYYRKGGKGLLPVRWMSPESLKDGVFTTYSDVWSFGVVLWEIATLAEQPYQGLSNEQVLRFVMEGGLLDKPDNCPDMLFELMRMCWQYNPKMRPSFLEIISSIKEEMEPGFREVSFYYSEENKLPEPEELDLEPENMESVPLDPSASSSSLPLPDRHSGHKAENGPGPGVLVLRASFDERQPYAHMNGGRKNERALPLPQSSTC
Chain of FGF-R1 (P11362 22-822, species assumed): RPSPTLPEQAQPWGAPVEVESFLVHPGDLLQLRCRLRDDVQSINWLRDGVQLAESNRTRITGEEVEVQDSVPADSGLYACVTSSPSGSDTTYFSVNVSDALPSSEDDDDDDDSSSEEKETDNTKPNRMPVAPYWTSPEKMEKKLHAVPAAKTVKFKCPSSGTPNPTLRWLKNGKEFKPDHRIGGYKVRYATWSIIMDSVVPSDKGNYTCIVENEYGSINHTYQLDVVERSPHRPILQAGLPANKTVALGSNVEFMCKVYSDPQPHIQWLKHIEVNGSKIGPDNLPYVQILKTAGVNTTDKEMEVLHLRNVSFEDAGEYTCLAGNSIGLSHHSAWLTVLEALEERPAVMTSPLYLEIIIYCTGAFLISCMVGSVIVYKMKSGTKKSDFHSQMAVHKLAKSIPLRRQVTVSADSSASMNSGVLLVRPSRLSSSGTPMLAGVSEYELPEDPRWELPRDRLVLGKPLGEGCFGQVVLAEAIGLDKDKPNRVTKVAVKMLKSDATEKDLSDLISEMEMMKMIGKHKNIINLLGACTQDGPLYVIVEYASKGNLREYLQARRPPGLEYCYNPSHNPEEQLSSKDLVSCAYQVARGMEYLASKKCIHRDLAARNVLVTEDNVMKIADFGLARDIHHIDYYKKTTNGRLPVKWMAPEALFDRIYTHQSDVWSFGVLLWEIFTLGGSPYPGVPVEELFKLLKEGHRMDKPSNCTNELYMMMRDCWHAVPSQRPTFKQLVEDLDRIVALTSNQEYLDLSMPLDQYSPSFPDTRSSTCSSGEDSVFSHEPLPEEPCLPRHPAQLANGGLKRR
Chain of JAK2 (O60674 whole entry, species assumed): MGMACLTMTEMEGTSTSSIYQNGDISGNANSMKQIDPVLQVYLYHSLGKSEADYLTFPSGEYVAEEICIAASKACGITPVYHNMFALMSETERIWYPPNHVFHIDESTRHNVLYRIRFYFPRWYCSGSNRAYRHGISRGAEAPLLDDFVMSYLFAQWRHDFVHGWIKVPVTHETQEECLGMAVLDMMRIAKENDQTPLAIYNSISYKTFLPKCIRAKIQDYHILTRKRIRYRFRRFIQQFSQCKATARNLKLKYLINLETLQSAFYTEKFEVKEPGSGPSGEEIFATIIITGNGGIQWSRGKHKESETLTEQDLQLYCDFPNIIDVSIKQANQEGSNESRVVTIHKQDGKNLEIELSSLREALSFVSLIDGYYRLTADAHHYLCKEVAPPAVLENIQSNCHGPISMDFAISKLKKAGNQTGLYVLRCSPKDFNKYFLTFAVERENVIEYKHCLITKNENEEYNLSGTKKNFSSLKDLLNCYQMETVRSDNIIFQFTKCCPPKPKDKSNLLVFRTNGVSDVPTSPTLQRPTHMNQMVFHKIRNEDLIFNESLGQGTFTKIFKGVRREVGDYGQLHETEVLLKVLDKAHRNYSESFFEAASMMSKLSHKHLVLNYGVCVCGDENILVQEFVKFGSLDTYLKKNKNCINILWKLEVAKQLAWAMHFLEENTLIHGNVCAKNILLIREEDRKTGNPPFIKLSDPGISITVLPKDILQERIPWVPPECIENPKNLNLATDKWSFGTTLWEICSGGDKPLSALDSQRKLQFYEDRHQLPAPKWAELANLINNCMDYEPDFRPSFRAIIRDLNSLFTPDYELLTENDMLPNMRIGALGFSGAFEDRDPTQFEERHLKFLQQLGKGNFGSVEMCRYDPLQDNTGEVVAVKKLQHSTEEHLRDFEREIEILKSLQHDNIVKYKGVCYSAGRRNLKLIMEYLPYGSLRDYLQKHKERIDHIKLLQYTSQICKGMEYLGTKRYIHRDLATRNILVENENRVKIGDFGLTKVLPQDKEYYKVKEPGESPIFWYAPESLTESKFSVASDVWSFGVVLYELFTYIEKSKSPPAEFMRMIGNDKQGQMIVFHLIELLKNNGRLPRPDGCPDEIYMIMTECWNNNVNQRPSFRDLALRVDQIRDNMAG

Oc1ccc(-c2cnc3ccc(NCc4ccc(F)cc4)nn23)cc1 [Compound 1]
JAK2 percentage of inhibition (JAK2): 48% | FGF-R1 percentage of inhibition (FGF-R1): 84% | IGF1-R percentage of inhibition (IGF1-R): 26% | INS-R percentage of inhibition (INS-R): 67%
